Test results as given in ChEMBL document CHEMBL6134895, “Strategic Design and Optimization of Umifenovir Analogues: Balancing Antiviral Efficacy and hERG Toxicity against SARS-CoV-2” (J Med Chem, 2025).

Tested on: SARS-CoV-2
Experiment: Antiviral activity against SARS CoV-2 assessed as inhibition of viral entry into HEK293T-hACE2 cells pretreated compound with HIV-1-based SARS CoV-2 pseudovirus harboring reporter NanoLuc luciferase gene for 1 hr followed by exposure to HEK293T-hACE2 cells measured after 48 hrs by Nano-Glo luciferase assay
Type: functional, organism-based
Conditions: Severe acute respiratory syndrome coronavirus 2

| Compound | IC50 [nM] |
| --- | --- |
| Cc1ccc(Cn2c(CSc3c(C)cc(C)cc3C)c(C(=O)NC3CCN(C(C)C)CC3)c3cc(O)c(Br)cc32)cc1 | 170 |
| Cc1ccc(Cn2c(CSc3c(C)cc(C)cc3C)c(C(=O)N3CCC(N4CCOCC4)CC3)c3cc(O)c(Br)cc32)cc1 | 280 |
| CCOC(=O)c1c(CSc2ccccc2)n(C)c2cc(Br)c(O)c(CN(C)C)c12 | 2300 |
